Measured values as given in patent publication US20090215895A1, “Therapeutic and carrier molecules” (PEPLIN BIOLIPIDS PTY LTD, priority 2004, published 2009).

Tests used:
[1] = Delayed type hypersensitivity (DTH) to sheep erythrocytes; format: in vivo, BALB/c mice; details: 10 mg/kg intraperitoneally prior to antigen challenge
Experimental: FIG. 14 is a representation showing (A) effect of MP3 on in vivo inflammatory response measured as delayed type hypersensitivity (DTH) to sheep erythrocytes and LPS-induced influx of neutrophils and mononuclear cells in the peritoneal cavity in BALB/c mice. In the DTH experiments mice were injected with sheep erythrocytes subcutaneously, challenged with the antigen in the hind foot pad 6 days later and the amount of foot pad swelling measured 48 hr later. One hour prior to challenge mice were given 10 mg/kg body weight of β-oxa fatty acid in 7% w/v, DMSO as vehicle intraperitoneally. […] The data, expressed as % of control, are presented as mean±SEM of 10 and 5 mice for DTH and peritoneal inflammation, respectively. […] The data, expressed as % of control, are presented as mean±SEM of ten mice per group and is representative of two experimental runs. […]
Effect of MP3 (β-oxa-23:4n-6) on the in vivo inflammatory response was measured as a delayed type hypersensitivity (DTH) reaction and LPS-induced influx of neutrophils and mononuclear cells in the peritoneal cavity in BALB/c mice. For DTH experiments, mice were injected subcutaneously with 100 μl of 10% hematocrit sheep erythrocytes, challenged with the antigen (25 μl of 40%) in the hind foot pad 6 days later and the degree of foot pad swelling measured 48 hr later (Ferrante et al, Clin. & Exp. Immunol. 38:70-76, 1979). […]

E-selectin = assay: Adhesion molecule expression on HUVEC (ELISA, mRNA slot blot); format: cell-based, human; details: for Suppression of TNF-α-induced E-selectin expression on HUVEC: 60 min pre-treatment
Experimental: FIG. 13 is a representation showing effect of MP3 (β-oxa-23:4n-6) and 20:4n-6 on time-related changes in TNF-α-induced E-selectin, ICAM-1 and VCAM-1 expression on HUVEC. HUVEC were pre-treated with 20 μmol/l β-oxa-23:4n-6 (closed triangles), 20 μmol/l 20:4n-6 (open squares), or DPC (control) for 60 min and then further incubated with TNF-α (125 U/200 μl medium) for up to 24 hr. The expression of E-selectin, ICAM-1 and VCAM-1 adhesion molecules was determined by ELISA. The results are expressed as % of control and represent the mean±SEM of three separate experiments each performed in triplicate. * p<0.05, **p<0.01, ***p<0.001, for significant differences between pre-treatment with fatty acid and corresponding control at a particular time point (one-way analysis of variance followed by the Dunnett test for multiple comparisons). Inset: The effect of β-oxa-23:4n-6 on TNF-α-induced expression of E-selectin mRNA in HUVEC. HUVEC were pre-incubated with β-oxa-23:4n-6 (20 μmol/l) or DPC (control) in 1 ml of medium at 37° C. for 60 min. After the addition of TNF-α, the cells were further incubated at 37° C. for 2 hr. E-selectin mRNA expression was then determined and the results expressed as relative %. Results are the mean±SEM of three separate experiments each performed in quadruplicate. *p<0.0001, for significant differences between pre-treatment with β-oxa-23:4n-6, and control (two-tailed Student's t-test for unpaired data).
HUVEC were stimulated with TNF, bacterial lipopolysaccharide (LPS) or PMA for 24 hr. Expression of E-selectin, ICAM-1 and VCAM-1 was determined by an enzyme-linked immunosorbent assay (ELISA) or as mRNA using a slot blot technique (Huang et al 1997 supra).

IKK = assay: TNF-stimulated activation of IKK in HUVEC (immunoprecipitation kinase assay); format: cell-based, human; details: 20 μmol/l, 30 min, TNF 5 min
Experimental: (§1) FIG. 17 is a representation showing (A) the effect of MP3 (β-oxa 23:4n-6) and DHA on TNF-induced degradation of IκBα in HUVEC. Cells were pre-treated with the fatty acids (20 μmol/l) for 30 min and then stimulated with TNF (125 U/ml) for 10 min. After cell lysis the proteins were analyzed by Western blots using anti-IκBα antibodies. (B) The effects of β-oxa-23:4n-6 on TNF-induced activation of transcriptional factor, NFκB in HUVEC. Cells were pre-treated with β-oxa-23:4n-6 (20 μmol/l) for 30 min and then stimulated with TNF for 2 hr. After cell lysis, nuclear fractions were prepared, nuclear proteins separated by SDS PAGE (12% w/v gel), transferred to nitrocellulose and probed with an anti-NFκB p65 antibody (Santa Cruz). […] (C) The effect of β-oxa 23:4n-6 on TNF-stimulated activation of IKK. Cells were pre-treated with β-oxa 23:4n-6 (20 μmol/l) for 30 min and then stimulated with TNF for 5 min. After cell lysis IKK was immunoprecipitated with anti-IKKα antibody and kinase activity determined.
IKK was immunoprecipitated with anti-IKKα (M-280) antibody (sc-7182, Santa Cruz, Biotech) and kinase activity determined using GST-IκBA (residues 5-55) as previously described (Lee et al, 1998 supra). Proteins were fractionated by SDS PAGE and radioactivity associated with GST-IκBα (residues 5-55) determined using an instant imager.

IκBα = assay: TNF-induced degradation of IκBα in HUVEC (Western blot); format: cell-based; details: Homo sapiens, 20 μmol/l, 30 min pre-treatment, TNF 10 min
Experimental: as §1, with “determined. […]” for “determined.”
Proteins (50 μg) were separated by SDS PAGE (12% w/v gel), transferred to nitrocellulose and probed with an anti-NFκB p65 or anti-IκBα antibody (Santa Cruz Biotech, Santa Cruz, Calif.). Immunocomplexes were detected by enhanced chemiluminescence (Hii et al, 1998 supra).

TNF-stimulated activation of IKK / IκB kinase-NFκB signalling pathway (IKK): inhibits the ability of TNF to activate
TNF-stimulated activation of IKK / IκB kinase-NFκB signalling pathway (IKK; listed as β-oxa 23:4n-6): significantly inhibited
Compound: CCCCC/C=C\C/C=C\C/C=C\C/C=C\CCCCOCC(=O)O [MP3, β-oxa-23:4n-6]
Delayed type hypersensitivity reaction (foot pad swelling) [1]: inhibited in ability to manifest a delayed type hypersensitivity reaction
TNF-α-induced expression of E-selectin mRNA (E-selectin; 20 μmol/l, 60 min, TNF-α 2 hr): substantially depressed
Suppression of TNF-α-induced E-selectin expression on HUVEC (E-selectin; 20 μmol/l): better than docosahexaenoic acid (22:6n-3) at suppressing
Suppression of TNF-α-induced E-selectin expression on HUVEC (E-selectin; 20 μmol/l, listed as β-oxa-23:4n-6): inhibited the expression
Time of cytokine treatment at maximum inhibition of E-selectin expression (E-selectin; 20 μmol/l, TNF-α): 4 h
Inhibition of LPS and PMA-induced up-regulation of E-selectin (E-selectin; HUVEC): inhibited LPS and PMA-induced, up-regulation
inhibition at 20 µM (IκBα): > 92%
